ChEMBL document CHEMBL4665775, “Half-life extension of peptidic APJ agonists by N-terminal lipid conjugation” (Bioorg Med Chem Lett, 2020)
Activity calls are given as the source filed them. The calls are words filed in the database; no cut-off is given here.

What was measured:
[1] = Plasma protein binding in rat assessed as unbound fraction by LC-MS/MS analysis; format: ADME, cell-free
[2] = Terminal half life in rat at 0.1 mg/kg, iv for 30 mins; format: ADME, organism-based; details: in vivo, read-out: beta t1/2
[3] = Unbound Cmax in rat at 0.5 mg/kg, sc at 15 mins; format: ADME, organism-based; details: in vivo, 0.25 h
[4] = Stability in rat Kidney S9 fraction assessed as compound remaining at 4 hrs; format: ADME, subcellular; details: read-out: Stabilty
[5] = Agonist activity at APJ receptor in anesthetized Lewis rat model of myocardial infarction assessed as target coverage at 10 ug/kg/min iv administered as continuous infusion for 30 mins relative to control; format: functional; details: dose 10 µg/kg/min, 0.5 h
[6] = Stability in rat liver S9 fraction assessed as compound remaining at 4 hrs; format: ADME, subcellular; details: read-out: Stabilty
[7] = Unbound fraction in anesthetized Lewis rat myocardial infarction model plasma assessed as free plasma concentration at 30 ug/kg/min, iv administered as continuous infusion for 30 mins; format: ADME, organism-based; details: in vivo, 0.03 mg/kg, 0.5 h, dose 30 µg/kg/min
[8] = Unbound fraction in anesthetized Lewis rat myocardial infarction model plasma assessed as free plasma concentration at 10 ug/kg/min, iv administered as continuous infusion for 30 mins; format: ADME, organism-based; details: in vivo, 0.01 mg/kg, 0.5 h, dose 10 µg/kg/min
[9] = Unbound fraction in anesthetized Lewis rat myocardial infarction model plasma assessed as free plasma concentration at 3.7 ug/kg/min, iv administered as continuous infusion for 30 mins; format: ADME, organism-based; details: in vivo, 0.0037 mg/kg, 0.5 h, dose 3.7 µg/kg/min
Rattus norvegicus [10] = experiment: Positive […] activity in anesthetized Lewis rat model of myocardial infarction assessed as increase in ejection fraction at 10 ug/kg/min, iv administered as continuous infusion for 30 mins; format: functional; details: dose 10 µg/kg/min, 0.5 h
Rattus norvegicus [11] = experiment: Positive […] activity in anesthetized Lewis rat model of myocardial infarction assessed as increase in ejection fraction at 3.7 ug/kg/min, iv administered as infusion for 30 mins; format: functional, organism-based; details: dose 3.7 µg/kg/min
[12] = Agonist activity at APJ receptor in anesthetized Lewis rat model of myocardial infarction assessed as target coverage at 30 ug/kg/min iv administered as continuous infusion for 30 mins relative to control; format: functional; details: dose 30 µg/kg/min, 0.5 h
Apelin receptor = molecular target: T1, Apelin receptor (Rattus norvegicus, UniProt Q9JHG3); experiment: Agonist activity at rat APJ receptor stably expressed in CHO cell membranes in presence of [35S]GTPgammaS by scintillation proximity assay; format: functional
T1 sequence (Q9JHG3 whole entry): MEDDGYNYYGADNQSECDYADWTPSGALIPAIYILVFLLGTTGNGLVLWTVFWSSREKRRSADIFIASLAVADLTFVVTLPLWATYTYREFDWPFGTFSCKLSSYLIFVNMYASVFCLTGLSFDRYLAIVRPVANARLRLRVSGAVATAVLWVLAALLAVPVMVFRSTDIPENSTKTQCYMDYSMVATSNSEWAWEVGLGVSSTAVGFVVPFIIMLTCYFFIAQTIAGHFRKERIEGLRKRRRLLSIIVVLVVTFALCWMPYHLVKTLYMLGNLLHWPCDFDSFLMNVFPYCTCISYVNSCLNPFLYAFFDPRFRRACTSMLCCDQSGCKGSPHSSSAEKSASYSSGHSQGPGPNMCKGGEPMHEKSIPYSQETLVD

Rattus norvegicus [13] = experiment: Agonist activity at APJ receptor in anesthetized Lewis rat model of myocardial infarction assessed as target coverage at 3.7 ug/kg/min, iv administered as continuous infusion for 30 mins; format: functional, organism-based; details: dose 3.7 µg/kg/min
[14] = Stability in rat plasma assessed as compound remaining at 4 hrs; format: ADME, cell-free; details: read-out: Stabilty
Rattus norvegicus [15] = experiment: Positive […] activity in anesthetized Lewis rat model of myocardial infarction assessed as increase in ejection fraction at 30 ug/kg/min, iv administered as infusion for 30 mins; format: functional; details: dose 30 µg/kg/min, 0.5 h
[16] = Clearance in Sprague-Dawley rat at 0.1 mg/kg, iv administered as single dose and measured up to 48 hrs; format: ADME, organism-based; details: in vivo
[17] = AUC (0 to t) in Sprague-Dawley rat at 0.5 mg/kg, sc administered as single dose and measured up to 48 hrs; format: ADME, organism-based; parameters: route subcutaneous, dose 0.5 mg/kg, time <=48; details: in vivo
[18] = Unbound Cmax in Sprague-Dawley rat at 0.5 mg/kg, sc administered as single dose and measured up to 48 hrs; format: ADME, organism-based; details: in vivo
[19] = AUC (0 to t) in Sprague-Dawley rat at 0.1 mg/kg, iv administered as single dose and measured up 48 hrs; format: ADME, organism-based; parameters: dose 0.1 mg/kg, time <=48; details: in vivo
[20] = Tmax in Sprague-Dawley rat at 0.5 mg/kg, sc administered as single dose and measured up to 48 hrs; format: ADME, organism-based; details: in vivo
[21] = Volume of distribution at steady state in Sprague-Dawley rat at 0.1 mg/kg, iv administered as single dose and measured up to 48 hrs; format: ADME, organism-based; details: in vivo, read-out: Vdss
[22] = Half life in Sprague-Dawley rat at 0.1 mg/kg, iv administered as single dose and measured up to 48 hrs; format: ADME, organism-based; details: in vivo
[23] = Unbound clearance in Sprague-Dawley rat at 0.1 mg/kg, iv administered as single dose and measured up to 48 hrs; format: ADME, organism-based; details: in vivo
[24] = Half life in Sprague-Dawley rat at 0.5 mg/kg, sc administered as single dose and measured up to 48 hrs; format: ADME, organism-based; details: in vivo
[25] = Bioavailability in Sprague-Dawley rat at 0.5 mg/kg, sc administered as single dose and measured up to 48 hrs; format: ADME, organism-based; details: in vivo
Rattus norvegicus [26] = experiment: Positive […] activity in anesthetized Lewis rat model of myocardial infarction assessed as increase in ejection fraction at 1 mg/kg/min, iv administered as continuous infusion for 20 mins; format: functional
Rattus norvegicus [27] = experiment: Positive […] activity in anesthetized Lewis rat model of myocardial infarction assessed as plasma concentration for maximal pharmacodynamic effect at 1 mg/kg/min, iv administered as continuous infusion for 20 mins; format: functional

SMILES | fraction unbound [1] | remaining at 4 h [4] | remaining at 4 h [6] | EC50 (Apelin receptor) | remaining at 4 h [14] | clearance [16] | AUC(0-t) at 48 h [17] | fCmax [18] | AUC(0-t) at 48 h [19] | Tmax [20] | Vd [21] | half-life [22] | CL free [23] | half-life [24] | bioavailability [25] | further results
CCCCCCCCCCCCC(=O)N[C@@H](CCC(=O)NCCOCCOCC(=O)NCCOCCOCC(=O)N[C@@H](CCC(N)=O)C(=O)N[C@@H](CCCNC(=N)N)C(=O)N1CCC[C@H]1C(=O)N[C@@H](CCCNC(=N)N)C(=O)N[C@@H](CC(C)C)C(=O)N[C@@H](CO)C(=O)N[C@@H](Cc1c[nH]cn1)C(=O)N[C@@H](CCCCN)C(=O)NCC(=O)N1CCC[C@H]1C(=O)N[C@@H](CCSC)C(=O)N1CCC[C@H]1C(=O)N[C@@H](Cc1ccccc1)C(=O)O)C(=O)O | 0.011 | 82% | > 90% | 4.6 nM | 51% |  |  |  |  |  |  |  |  |  |  | half-life [2]: 4.3 min; fCmax [3]: 0.3 nM; fold change (FC) [5]: 2.7; Cp(f) [7]: 29 nM; Cp(f) [8]: 12 nM; Cp(f) [9]: 3 nM; Activity (Rattus norvegicus [10]): 22.8%; Activity (Rattus norvegicus [11]): inactive; fold change (FC) [12]: 6.3; Activity (Rattus norvegicus [13]): inactive; Activity (Rattus norvegicus [15]): 6.1%
CCCCCCCCCCCCCCC(=O)N[C@@H](CCC(=O)NCCOCCOCC(=O)NCCOCCOCC(=O)N[C@@H](CCCCNC(=N)N)C(=O)N[C@H](CCCNC(=N)N)C(=O)N[C@@H](CCC(N)=O)C(=O)N[C@@H](CCCCNC(=N)N)C(=O)N1CCC[C@H]1C(=O)N[C@H](CCCNC(=N)N)C(=O)N(C)[C@@H](CC(C)C)C(=O)N[C@@H](CO)C(=O)N[C@@H](Cc1c[nH]cn1)C(=O)N[C@@H](CCCCN)C(=O)NCC(=O)N1[C@H](C(=O)N[C@@H](Cc2ccc(I)cc2)C(=O)N2CCC[C@H]2C(=O)N[C@H](Cc2ccc(-c3ccccc3)cc2)C(=O)O)C[C@@H]2CCCC[C@@H]21)C(=O)O | 0.0021 | 84% | 66% | 4.39 nM | > 90% | 1.35 mL/min/kg | 0.404 µM·h | 0.07 nM | 0.426 µM·h | 8 h | 0.074 L/kg | 1.84 h | 650 mL/min/kg | 6.3 h | 24% | 
CSCC[C@H](NC(=O)[C@@H]1CCCN1C(=O)CNC(=O)[C@H](CCCCN)NC(=O)[C@H](Cc1cnc[nH]1)NC(=O)[C@H](CO)NC(=O)[C@H](CC(C)C)NC(=O)[C@H](CCCNC(=N)N)NC(=O)[C@@H]1CCCN1C(=O)[C@H](CCCNC(=N)N)NC(=O)[C@@H]1CCC(=O)N1)C(=O)N1CCC[C@H]1C(=O)N[C@@H](Cc1ccccc1)C(=O)O |  |  |  |  |  |  |  |  |  |  |  |  |  |  |  | Activity (Rattus norvegicus [26]): 16.6%; MPE (Rattus norvegicus [27]): 16.4 µM
CC(C)C[C@@H](C(=O)N[C@@H](CO)C(=O)N[C@@H](Cc1c[nH]cn1)C(=O)N[C@@H](CCCNC(=N)N)C(=O)NCC(=O)N1[C@H](C(=O)N[C@@H](Cc2ccc(I)cc2)C(=O)N2CCC[C@H]2C(=O)N[C@H](Cc2ccc(-c3ccccc3)cc2)C(=O)O)C[C@@H]2CCCC[C@@H]21)N(C)C(=O)[C@@H](CCCNC(=N)N)NC(=O)[C@@H]1CCCN1C(=O)[C@H](CCCCNC(=N)N)NC(=O)[C@H](CCC(N)=O)NC(=O)[C@@H](CCCNC(=N)N)NC(=O)[C@H](CCCCNC(=N)N)NC(=O)COCCOCCNC(=O)COCCOCCNC(=O)CC[C@H](NC(=O)CCCCCCCCCCCCCCCCC(=O)O)C(=O)O | 0.0013 | 86% | 85% | 117 nM | > 90% | 0.11 mL/min/kg | 9.58 µM·h | 0.33 nM | 4.45 µM·h | 24 h | 0.165 L/kg | 19.7 h | 85 mL/min/kg | > 24 h | > 36% | 
CCCCCCCCCCCCC(=O)N[C@@H](CCC(=O)NCCOCCOCC(=O)NCCOCCOCC(=O)N[C@@H](CCCCNC(=N)N)C(=O)N[C@H](CCCNC(=N)N)C(=O)N[C@@H](CCC(N)=O)C(=O)N[C@@H](CCCCNC(=N)N)C(=O)N1CCC[C@H]1C(=O)N[C@H](CCCNC(=N)N)C(=O)N(C)[C@@H](CC(C)C)C(=O)N[C@@H](CO)C(=O)N[C@@H](Cc1c[nH]cn1)C(=O)N[C@@H](CCCCN)C(=O)NCC(=O)N1[C@H](C(=O)N[C@@H](Cc2ccc(I)cc2)C(=O)N2CCC[C@H]2C(=O)N[C@H](Cc2ccc(-c3ccccc3)cc2)C(=O)O)C[C@@H]2CCCC[C@@H]21)C(=O)O | 0.0022 | 86% | 45% | 6.22 nM | > 90% | 2.18 mL/min/kg | 0.349 µM·h | 0.06 nM | 0.269 µM·h | 6 h | 0.231 L/kg | 3.4 h | 1000 mL/min/kg | 10.2 h | 33% | 
